Experiments:
[1] = tested on: adult rat ventricular cardiomyocytes; assay: cell contractility assay, edge detection method (IonOptix); assay type: cell-based; settings: atenolol 100 nM, 20 min; 1 Hz pacing; with and without 10 nM isoproterenol
Procedure: FIG. 7. Experimental data for cardiomyocyte hypertrophy (A) and cell contractility (B) assays performed with freshly isolated adult rat ventricular cardiomyocytes (CM) using atenolol coated nanoparticles (Atenolol NP) and control nanoparticles.
Freshly isolated adult rat ventricular CMs were incubated for 20 min with atenolol (100 nM), atenolol coated or control nanoparticles (both at 30 nM) and cell contractility was measured using edge detection method (IonOptix) at 1 Hz pacing frequency with and without stimulation with 10 nM isoproterenol.

β1-AR = β1-AR (Homo sapiens, UniProt P08588); settings: HEK293 cells stably expressing β1-AR; pretreatment 20 min with 30 nM; ISO 0.1 nM
β1-AR, sequence (P08588 whole entry): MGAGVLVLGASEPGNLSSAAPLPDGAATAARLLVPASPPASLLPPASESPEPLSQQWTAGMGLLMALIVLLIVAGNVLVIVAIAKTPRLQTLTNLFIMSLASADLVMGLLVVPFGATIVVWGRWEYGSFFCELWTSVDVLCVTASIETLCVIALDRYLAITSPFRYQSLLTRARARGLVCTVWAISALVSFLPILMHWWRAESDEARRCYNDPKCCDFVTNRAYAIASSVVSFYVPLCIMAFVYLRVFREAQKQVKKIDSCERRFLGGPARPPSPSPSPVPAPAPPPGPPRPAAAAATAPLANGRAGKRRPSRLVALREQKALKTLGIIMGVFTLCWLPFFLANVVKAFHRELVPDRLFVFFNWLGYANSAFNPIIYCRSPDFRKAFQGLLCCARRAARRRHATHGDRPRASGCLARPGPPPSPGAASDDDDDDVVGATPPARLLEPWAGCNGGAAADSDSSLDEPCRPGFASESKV
From the text: Experimental data with HEK293 cells stably expressing β1-AR and the cAMP biosensor Epac1-camps.

Compound: CC(C)NCC(O)COc1ccc(CC(N)=O)cc1 (centres unmarked) [atenolol]
- cell contractility [1]: decrease cell contractility
- inhibition of ISO-induced cAMP increase (CFP/YFP ratio) (β1-AR): efficacious in blocking β1-AR dependent cAMP synthesis

Reference: patent US11357825B2, “Means for treating cardiovascular disease” (Universitaetsklinikum Hamburg-Eppendorf, priority 2017, dated 2022)
